Measured values from ChEMBL document CHEMBL5550100, “Discovery of LHF418 as a new potent SOS1 PROTAC degrader” (Bioorg Med Chem, 2024).
Activity calls are given as the source filed them. The calls are words filed in the database; no cut-off is given here.

Experiments:
Assay type in all cases: cell-based
[1] = target: T1, Protein cereblon/Son of sevenless homolog 1 (Homo sapiens, UniProt Q07889+Q96SW2); assay: PROTAC activity at CRBN/SOS1 in human A549 cells assessed as protein degradation at 1 uM incubated for 24 hrs by immunoblot analysis relative to control
T1 sequence (Q07889 whole entry, looked up): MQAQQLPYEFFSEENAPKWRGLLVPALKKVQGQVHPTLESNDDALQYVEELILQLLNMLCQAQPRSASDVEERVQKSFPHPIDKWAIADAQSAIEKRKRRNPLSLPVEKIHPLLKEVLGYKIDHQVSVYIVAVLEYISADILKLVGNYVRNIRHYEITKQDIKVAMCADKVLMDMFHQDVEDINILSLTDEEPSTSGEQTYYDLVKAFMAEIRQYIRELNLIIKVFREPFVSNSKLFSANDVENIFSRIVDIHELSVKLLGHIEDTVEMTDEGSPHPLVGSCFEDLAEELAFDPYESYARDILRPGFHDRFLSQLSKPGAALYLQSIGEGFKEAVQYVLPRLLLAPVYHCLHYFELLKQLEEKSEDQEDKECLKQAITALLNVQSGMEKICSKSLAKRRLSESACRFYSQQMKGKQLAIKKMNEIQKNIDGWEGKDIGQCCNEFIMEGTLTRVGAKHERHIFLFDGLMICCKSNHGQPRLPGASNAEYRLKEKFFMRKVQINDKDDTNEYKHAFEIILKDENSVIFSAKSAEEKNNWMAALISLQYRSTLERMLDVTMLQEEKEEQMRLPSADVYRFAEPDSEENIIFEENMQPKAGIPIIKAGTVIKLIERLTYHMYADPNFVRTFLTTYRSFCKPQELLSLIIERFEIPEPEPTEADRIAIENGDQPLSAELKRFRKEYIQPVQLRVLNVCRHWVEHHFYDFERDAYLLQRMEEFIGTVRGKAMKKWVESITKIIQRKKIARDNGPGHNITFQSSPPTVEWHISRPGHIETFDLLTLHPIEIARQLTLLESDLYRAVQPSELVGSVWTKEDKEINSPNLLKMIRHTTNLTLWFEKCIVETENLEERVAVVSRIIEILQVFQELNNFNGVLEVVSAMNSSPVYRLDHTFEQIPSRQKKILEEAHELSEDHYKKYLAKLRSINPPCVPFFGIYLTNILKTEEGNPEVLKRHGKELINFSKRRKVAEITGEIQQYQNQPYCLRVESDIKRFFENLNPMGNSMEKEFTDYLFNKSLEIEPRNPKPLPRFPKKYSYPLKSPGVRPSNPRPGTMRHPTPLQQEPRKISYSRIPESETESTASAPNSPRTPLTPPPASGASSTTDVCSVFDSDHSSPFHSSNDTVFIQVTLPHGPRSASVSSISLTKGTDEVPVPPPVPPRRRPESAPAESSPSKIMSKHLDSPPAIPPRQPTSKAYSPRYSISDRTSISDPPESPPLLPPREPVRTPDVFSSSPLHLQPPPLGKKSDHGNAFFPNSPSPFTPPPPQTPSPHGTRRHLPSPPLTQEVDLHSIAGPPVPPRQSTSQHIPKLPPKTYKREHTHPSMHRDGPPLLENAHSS
T1 sequence (Q96SW2 whole entry, looked up): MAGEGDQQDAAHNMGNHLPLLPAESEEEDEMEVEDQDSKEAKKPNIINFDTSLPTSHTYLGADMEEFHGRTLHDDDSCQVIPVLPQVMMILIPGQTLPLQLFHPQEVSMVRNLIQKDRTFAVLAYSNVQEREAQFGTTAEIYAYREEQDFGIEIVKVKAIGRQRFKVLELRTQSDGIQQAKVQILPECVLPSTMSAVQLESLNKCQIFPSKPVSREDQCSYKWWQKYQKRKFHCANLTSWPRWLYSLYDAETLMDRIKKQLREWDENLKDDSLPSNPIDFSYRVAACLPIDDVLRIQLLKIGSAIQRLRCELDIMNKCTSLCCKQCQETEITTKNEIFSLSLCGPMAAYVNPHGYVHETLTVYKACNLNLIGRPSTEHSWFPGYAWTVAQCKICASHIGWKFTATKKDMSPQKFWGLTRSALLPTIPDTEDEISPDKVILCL

[2] = target: T1, Protein cereblon/Son of sevenless homolog 1; assay: PROTAC activity at CRBN/SOS1 in human A549 cells assessed as protein degradation at 0.1 uM incubated for 24 hrs by immunoblot analysis relative to control
[3] = target: T1, Protein cereblon/Son of sevenless homolog 1; assay: PROTAC activity at CRBN/SOS1 in human A549 cells assessed as protein degradation at 10 uM incubated for 24 hrs by immunoblot analysis relative to control
[4] = target: T1, Protein cereblon/Son of sevenless homolog 1; assay: PROTAC activity at CRBN/SOS1 in human A549 cells assessed as half life of SOS1 at 3 uM incubated for 24 hrs by immunoblot analysis
[5] = target: T1, Protein cereblon/Son of sevenless homolog 1; assay: PROTAC activity at CRBN/SOS1 in human A549 cells assessed as protein degradation at 10 uM incubated for 24 hrs by immunoblot analysis

| Structure (SMILES) | Activity [1] [%] | Activity [2] [%] | Activity [3] [%] | T1/2 [4] [h] | Activity [5] |
| --- | --- | --- | --- | --- | --- |
| COc1cc2nc(C)nc(N[C@H](C)c3cc(N)cc(C(F)(F)F)c3)c2cc1O[C@H]1CCN(C(=O)CC(=O)Nc2cccc3c2C(=O)N(C2CCC(=O)NC2=O)C3)C1 (some centres undefined) | 11.6 | 0 | 9.2 |  |  |
| COc1cc2nc(C)nc(N[C@H](C)c3cc(N)cc(C(F)(F)F)c3)c2cc1O[C@H]1CCN(C(=O)CCCCCCCCC(=O)Nc2ccc3c(c2)C(=O)N(C2CCC(=O)NC2=O)C3)C1 (some centres undefined) | 2.5 | 0 | 0.6 |  |  |
| COc1cc2nc(C)nc(N[C@H](C)c3cc(N)cc(C(F)(F)F)c3)c2cc1O[C@H]1CCN(C(=O)CCC(=O)Nc2ccc3c(c2)CN(C2CCC(=O)NC2=O)C3=O)C1 (some centres undefined) | 0 | 0 | 2.4 |  |  |
| COc1cc2nc(C)nc(N[C@H](C)c3cc(N)cc(C(F)(F)F)c3)c2cc1O[C@H]1CCN(C(=O)CCCNc2cccc3c2C(=O)N(C2CCC(=O)NC2=O)C3=O)C1 (some centres undefined) | 0 | 0.9 | 8 |  |  |
| COc1cc2nc(C)nc(N[C@H](C)c3cc(N)cc(C(F)(F)F)c3)c2cc1O[C@H]1CCN(C(=O)CCCCC(=O)Nc2ccc3c(c2)C(=O)N(C2CCC(=O)NC2=O)C3)C1 (some centres undefined) | 12.2 | 2.7 | 37.6 |  |  |
| COc1cc2nc(C)nc(N[C@H](C)c3cc(N)cc(C(F)(F)F)c3)c2cc1O[C@H]1CCN(C(=O)CCCCCCCCCNc2ccc3c(c2)C(=O)N(C2CCC(=O)NC2=O)C3=O)C1 (some centres undefined) | 0 | 0 | 0 |  |  |
| COc1cc2nc(C)nc(N[C@H](C)c3cc(N)cc(C(F)(F)F)c3)c2cc1O[C@H]1CCN(C(=O)CCCCCNc2cccc3c2C(=O)N(C2CCC(=O)NC2=O)C3=O)C1 (some centres undefined) | 5.7 | 14.3 | 6.7 |  |  |
| C[C@@H]1C[C@@H]([C@H](O)CC2CC(=O)NC(=O)C2)C(=O)[C@@H](C)C1 |  |  |  | > 24 |  |
| COc1cc2nc(C)nc(N[C@H](C)c3cc(N)cc(C(F)(F)F)c3)c2cc1O[C@H]1CCN(C(=O)CCCCCCCCC(=O)Nc2cccc3c2CN(C2CCC(=O)NC2=O)C3=O)C1 (some centres undefined) | 39.1 | 11.4 | 26.1 |  |  |
| COc1cc2nc(C)nc(N[C@H](C)c3cc(N)cc(C(F)(F)F)c3)c2cc1O[C@H]1CCN(C(=O)CCCCCCCNc2ccc3c(c2)C(=O)N(C2CCC(=O)NC2=O)C3=O)C1 (some centres undefined) | 20.9 | 6.6 | 42.9 |  |  |
| COc1cc2nc(C)nc(N[C@H](C)c3cc(N)cc(C(F)(F)F)c3)c2cc1O[C@H]1CCN(C(=O)CNc2cccc3c2C(=O)N(C2CCC(=O)NC2=O)C3=O)C1 (some centres undefined) | 2.6 | 1.7 | 0 |  |  |
| COc1cc2nc(C)nc(N[C@H](C)c3cc(N)cc(C(F)(F)F)c3)c2cc1O[C@H]1CCN(C(=O)CCCCCCC(=O)Nc2cccc3c2C(=O)N(C2CCC(=O)NC2=O)C3)C1 (some centres undefined) | 0 | 2.6 | 3.7 |  |  |
| COc1cc2nc(C)nc(N[C@H](C)c3cc(N)cc(C(F)(F)F)c3)c2cc1O[C@H]1CCN(C(=O)CC(=O)Nc2cccc3c2CN(C2CCC(=O)NC2=O)C3=O)C1 (some centres undefined) | 4.7 | 1 | 7 |  |  |
| COc1cc2nc(C)nc(N[C@H](C)c3cc(N)cc(C(F)(F)F)c3)c2cc1O[C@H]1CCN(C(=O)CCCCC(=O)Nc2ccc3c(c2)CN(C2CCC(=O)NC2=O)C3=O)C1 (some centres undefined) | 10 | 7.1 | 15.6 |  |  |
| COc1cc2nc(C)nc(N[C@H](C)c3cc(N)cc(C(F)(F)F)c3)c2cc1O[C@H]1CCN(C(=O)CCCCCCC(=O)Nc2ccc3c(c2)C(=O)N(C2CCC(=O)NC2=O)C3)C1 (some centres undefined) | 37.6 | 7.9 | 8.2 |  |  |
| COc1cc2nc(C)nc(N[C@H](C)c3cc(N)cc(C(F)(F)F)c3)c2cc1O[C@H]1CCN(C(=O)CCCCCCCC(=O)Nc2cccc3c2CN(C2CCC(=O)N(C)C2=O)C3=O)C1 (some centres undefined) |  |  |  |  | inactive |

| Structure (SMILES) | Activity [1] [%] | Activity [2] [%] | Activity [3] [%] | T1/2 [4] [h] | Activity [5] |
| --- | --- | --- | --- | --- | --- |
| COc1cc2nc(C)nc(N[C@H](C)c3cc(N)cc(C(F)(F)F)c3)c2cc1O[C@H]1CCN(C(=O)CCCCC(=O)Nc2cccc3c2CN(C2CCC(=O)NC2=O)C3=O)C1 (some centres undefined) | 0 | 1.8 | 0 |  |  |
| COc1cc2nc(C)nc(N[C@H](C)c3cc(N)cc(C(F)(F)F)c3)c2cc1O[C@H]1CCN(C(=O)CCC(=O)Nc2ccc3c(c2)C(=O)N(C2CCC(=O)NC2=O)C3)C1 (some centres undefined) | 20 | 13.7 | 35.6 |  |  |
| COc1cc2nc(C)nc(N[C@H](C)c3cc(N)cc(C(F)(F)F)c3)c2cc1O[C@H]1CCN(C(=O)CCCCCCCCC(=O)Nc2ccc3c(c2)CN(C2CCC(=O)NC2=O)C3=O)C1 (some centres undefined) | 9.5 | 0 | 9 |  |  |
| COc1cc2nc(C)nc(N[C@H](C)c3cc(N)cc(C(F)(F)F)c3)c2cc1O[C@H]1CCN(C(=O)CCCCCNc2ccc3c(c2)C(=O)N(C2CCC(=O)NC2=O)C3=O)C1 (some centres undefined) | 11.9 | 5.6 | 19.3 |  |  |
| COc1cc2nc(C)nc(N[C@H](C)c3cc(N)cc(C(F)(F)F)c3)c2cc1O[C@H]1CCN(C(=O)CCCCCCC(=O)Nc2ccc3c(c2)CN(C2CCC(=O)NC2=O)C3=O)C1 (some centres undefined) | 57.7 | 3.9 | 4.1 |  |  |
| COc1cc2nc(C)nc(N[C@H](C)c3cc(N)cc(C(F)(F)F)c3)c2cc1O[C@H]1CCN(C(=O)CC(=O)Nc2ccc3c(c2)C(=O)N(C2CCC(=O)NC2=O)C3)C1 (some centres undefined) | 6.1 | 8.5 | 7.5 |  |  |
| COc1cc2nc(C)nc(N[C@H](C)c3cc(N)cc(C(F)(F)F)c3)c2cc1O[C@H]1CCN(C(=O)CCCCCCCNc2cccc3c2C(=O)N(C2CCC(=O)NC2=O)C3=O)C1 (some centres undefined) | 13 | 15.3 | 6.1 |  |  |
| COc1cc2nc(C)nc(N[C@H](C)c3cc(N)cc(C(F)(F)F)c3)c2cc1O[C@H]1CCN(C(=O)CC(=O)Nc2ccc3c(c2)CN(C2CCC(=O)NC2=O)C3=O)C1 (some centres undefined) | 4 | 0 | 9.3 |  |  |
| COc1cc2nc(C)nc(N[C@H](C)c3cc(N)cc(C(F)(F)F)c3)c2cc1O[C@H]1CCN(C(=O)CCCCCCCCC(=O)Nc2cccc3c2C(=O)N(C2CCC(=O)NC2=O)C3)C1 (some centres undefined) | 6.7 | 6.4 | 18.1 |  |  |
| COc1cc2nc(C)nc(N[C@H](C)c3cc(N)cc(C(F)(F)F)c3)c2cc1O[C@H]1CCN(C(=O)CCCNc2ccc3c(c2)C(=O)N(C2CCC(=O)NC2=O)C3=O)C1 (some centres undefined) | 8.9 | 4 | 9.4 |  |  |
| COc1cc2nc(C)nc(N[C@H](C)c3cc(N)cc(C(F)(F)F)c3)c2cc1O[C@H]1CCN(C(=O)CCCCCCC(=O)Nc2cccc3c2CN(C2CCC(=O)NC2=O)C3=O)C1 (some centres undefined) | 31.9 | 2.1 | 65.4 |  |  |
| COc1cc2nc(C)nc(N[C@H](C)c3cc(N)cc(C(F)(F)F)c3)c2cc1O[C@H]1CCN(C(=O)CCCCC(=O)Nc2cccc3c2C(=O)N(C2CCC(=O)NC2=O)C3)C1 (some centres undefined) | 1.6 | 5.6 | 10.2 |  |  |
| COc1cc2nc(C)nc(N[C@H](C)c3cc(N)cc(C(F)(F)F)c3)c2cc1O[C@H]1CCN(C(=O)CNc2ccc3c(c2)C(=O)N(C2CCC(=O)NC2=O)C3=O)C1 (some centres undefined) | 0 | 0 | 1.5 |  |  |
| COc1cc2nc(C)nc(N[C@H](C)c3cc(N)cc(C(F)(F)F)c3)c2cc1O[C@H]1CCN(C(=O)CCC(=O)Nc2cccc3c2C(=O)N(C2CCC(=O)NC2=O)C3)C1 (some centres undefined) | 9.6 | 0 | 0 |  |  |
| COc1cc2nc(C)nc(N[C@H](C)c3cc(N)cc(C(F)(F)F)c3)c2cc1O[C@H]1CCN(C(=O)CCCCCCCCCCC(=O)Nc2cccc3c2CN(C2CCC(=O)NC2=O)C3=O)C1 (some centres undefined) | 0 | 0 | 0 |  |  |
